Measurements taken from US5216156A, “Non-migrating 1-hydrocarbyloxy-2,2,6,6-tetramethylpiperidine 1,3,5-triazine derivatives” (Ciba-Geigy Corporation, priority 1992, dated 1993).

Experiments:
[1] = Extraction of stabilizer from high solids thermoset acrylic enamel film by refluxing toluene, GC (Example 78); details: refluxing toluene one hour; for Percent Stabilizer Extracted: 1% by weight on resin solids, baked 30 minutes at 121° C., stored one week, GC; for extraction of stabilizer from the stabilized enamel: in words, thermoset acrylic enamel
Excerpt: A model high solids thermoset acrylic enamel based on a binder of 60% of a polymer comprising monomers such as 2-hydroxyethyl acrylate, butyl acrylate, butyl methacrylate, styrene and acrylic acid, and 40% of a melamine resin with an acid catalyst such as p-toluenesulfonic acid is formulated and stabilized with 1% by weight, based on resin solids, of a variety of hindered amine stabilizers.
This enamel is spray applied to a thickness of 1.8-2.0 mils (0.0457-0.0508 mm) onto glass plates and baked for 30 minutes at 250° F. (121° C.). After storage for one week in an air-conditioned room, the films are removed from the glass plates and placed in a round-bottomedflask and extracted with refluxing toluene for one hour. After one hour, the films are removed and the toluene extract is analyzed for extracted stabilizer by gas chromatography.

[2] = Extraction of stabilizer from polyester polyurethane refinish enamel film by refluxing toluene, GC (Example 75); details: 2% by weight on resin solids, film baked 30 minutes at 60° C., stored one month, refluxing toluene one hour
Protocol: A polyester polyurethane refinish enamel is prepared from a polyester resin (DESMOPHEN® 670A-80, Mobay) and a polyurethane resin (DESMODUR® N-75, Mobay) in a ratio of 1.0:1.1 equivalents, with 1% DABCO® T-12 […] as catalyst. The enamel is stabilized with 2% by weight, based on resin solids, of various hindered amine stabilizers. The stabilized enamel is spray applied to a thickness of 1.8-2.0 mils (0.0457-0.0508 mm) onto glass plates and baked for 30 minutes at 140° F. (60° C.). After storage for one month in an air-conditioned room, the films are removed from the glass plates and placed in a round-bottomed flask and then extracted with refluxing toluene for one hour. The films are then removed and the toluene is analyzed for any stabilizer extracted by gas chromatography.
If the stabilizer is chemically bonded to the polymer film, little if any of the stabilizer is extracted by the refluxing toluene.

[3] = Hindered amine basicity (pKa); assay type: physicochemical; details: Table 1; N-substituted derivatives of 4-hydroxy-2,2,6,6-tetramethylpiperidine
Excerpt: There are clear advantages in using the hindered amine compounds having 1-hydrocarbyloxy substitution. In certain polymer systems, there is a definite advantage in using a less basic stabilizer. For example, the cure of acid-catalyzed thermoset melamine crosslinked automotive coatings systems can be severely retarded by an interaction between the acid catalyst and a basic hindered amine stabilizer.

Row | SMILES | Percent Stabilizer Extracted [1] [%] | Percent Stabilizer Extracted [2] [%] | pKa [3] | extraction of stabilizer from the stabilized enamel [1]
1 | CCCCN(c1nc(NCCO)nc(N(CCCC)C2CC(C)(C)N(OC3CCCCC3)C(C)(C)C2)n1)C1CC(C)(C)N(OC2CCCCC2)C(C)(C)C1 [Example 1, 2-[(2-Hydroxyethyl)amino]-4,6-bis[N-(1-cyclohexyloxy-2,2,6,6-tetramethylpiperidin-4-yl)-butylamino]-1,3,5-triazine] | 0 | 0 |  | resist extraction from the stabilized enamel
2 | CCCCCCCCON1C(C)(C)CC(N(CCCC)c2nc(NCCO)nc(N(CCCC)C3CC(C)(C)N(OCCCCCCCC)C(C)(C)C3)n2)CC1(C)C [Example 2, 2-[(2-Hydroxyethyl)amino]-4,6-bis[N-(1-octyloxy-2,2,6,6-tetramethylpiperidin-4-yl)butylamino]-1,3,5-triazine] | 0 | 0 |  | resist extraction from the stabilized enamel
3 | CCCCN(c1nc(NCCCCCC(=O)O)nc(N(CCCC)C2CC(C)(C)N(OC3CCCCC3)C(C)(C)C2)n1)C1CC(C)(C)N(OC2CCCCC2)C(C)(C)C1 [Example 15, N-{4,6-Bis[(1-cyclohexyloxy-2,2,6,6-tetramethylpiperidin-4-yl)butylamino]-1,3,5-triazin-2-yl}-6-aminohexanoic acid] |  | 23 |  | 
4 | CCCCCCCCON1C(C)(C)CC(N(CCCC)c2nc(NCCCCCC(=O)O)nc(N(CCCC)C3CC(C)(C)N(OCCCCCCCC)C(C)(C)C3)n2)CC1(C)C [Example 16, N-{4,6-Bis[(1-octyloxy-2,2,6,6-tetramethylpiperidin-4-yl)butylamino]-1,3,5-triazin-2-yl}-6-aminohexanoic acid] |  | 21 |  | 

More lines, main results first:

Row | Percent Stabilizer Extracted [1] [%] | Percent Stabilizer Extracted [2] [%] | pKa [3] | SMILES | extraction of stabilizer from the stabilized enamel [1]
5 | 100 | 100 |  | CCCCCCCCON1C(C)(C)CC(OC(=O)CCCCCCCCC(=O)OC2CC(C)(C)N(OCCCCCCCC)C(C)(C)C2)CC1(C)C [HA 1, bis(1-octyloxy-2,2,6,6-tetramethylpiperidin-4-yl) sebacate, reference compound] | 
6 |  |  | 10.0 | CC1(C)CC(O)CC(C)(C)N1 [N--H, 4-hydroxy-2,2,6,6-tetramethylpiperidine] | 
7 |  |  | 10.0 | CN1C(C)(C)CC(O)CC1(C)C [N--Me] | 
8 |  |  | 4.8 | CON1C(C)(C)CC(O)CC1(C)C [N--OMe] | 
